What all share (assay type): biochemical
For test [1], the target named is T1, endothiapepsin (Cryphonectria parasitica, UniProt P11838).
T1 construct: gene EAPA; mature active enzyme, monomer
As to the kind of experiment: fluorescence-based protease assay adapted from HIV protease assay; Ki presumably from IC50 (Cheng-Prusoff). From the text: fluorescence-based protease assay adapted from HIV protease assay; Ki presumably from IC50 (Cheng-Prusoff) on endothiapepsin

Test [2] addresses T1, endothiapepsin. As to the kind of experiment: fluorescence-based protease assay adapted from HIV protease assay. An excerpt:
fluorescence-based protease assay adapted from HIV protease assay on endothiapepsin

For test [3], the target named is T1, endothiapepsin. As to the kind of experiment: fluorescence-based protease assay adapted from HIV protease assay; crystal soaking. From the text:
fluorescence-based protease assay adapted from HIV protease assay; crystal soaking on endothiapepsin

T1 sequence (P11838 90-419): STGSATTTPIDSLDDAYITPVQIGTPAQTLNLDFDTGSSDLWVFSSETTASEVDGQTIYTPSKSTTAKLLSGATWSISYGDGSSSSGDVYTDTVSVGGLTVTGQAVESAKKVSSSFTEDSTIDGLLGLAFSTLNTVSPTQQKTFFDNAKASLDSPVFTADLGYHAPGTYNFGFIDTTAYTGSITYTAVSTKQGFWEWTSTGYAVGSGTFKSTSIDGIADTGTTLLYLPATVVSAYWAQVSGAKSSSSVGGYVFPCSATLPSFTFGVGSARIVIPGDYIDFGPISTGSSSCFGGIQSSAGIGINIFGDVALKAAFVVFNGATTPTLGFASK

`N[C@@H](Cc1ccccc1)C(=O)N/N=C/c1cccc(/C=N/NC(=O)[C@@H](N)Cc2ccccc2)c1` [compound 16, bis-acylhydrazone 16]: the affinity at endothiapepsin [1], expressed as Ki, was 980 ± 50 nM. The IC50 on endothiapepsin [2] worked out at 2100 ± 100 nM.
For `N[C@@H](Cc1c[nH]c2ccccc12)C(=O)N/N=C/c1cccc(/C=N/NC(=O)[C@@H](N)Cc2c[nH]c3ccccc23)c1` [compound 13, bis-acylhydrazone 13], the Ki on endothiapepsin [1] stood at 25.4 ± 0.2 nM. Also, on endothiapepsin [3], half-maximal inhibition (IC50) was put at 54 ± 0.5 nM.

Source of the values: PMC5113778, “Fragment Linking and Optimization of Inhibitors of the Aspartic Protease Endothiapepsin: Fragment‐Based Drug Design Facilitated by Dynamic Combinatorial Chemistry” (Angewandte Chemie (International Ed. in English), 2016).
